Test results taken from US20240025856A1, “1,2,3,4-TETRAHYDROQUINOLINE DERIVATIVES AS INHIBITORS OF THE YAP/TAZ-TEAD ACTIVATION FOR TREATING CANCER” (KATHOLIEKE UNIVERSITEIT LEUVEN, priority 2020, published 2024).

Tests used:
Type in all cases: cell-based
[1] = test system: YAP/TAZ-TEAD transcription; experiment: Reporter gene assay for measuring the inhibition of YAP/TAZ-TEAD transcription (TEAD-responsive element luciferase reporter in Hek293T cells); details: Hek293T cells transiently transfected with TEAD-responsive element luciferase reporter, 24 hours incubation
Summary of the method: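 Readout is SteadyLite luciferase luminescence from a TEAD-responsive element reporter transiently transfected into Hek293T cells, exposed to compounds for 24 h at 37 °C/5% CO2. IC50 derived from percent inhibition, scaled between vehicle basal activity (0%) and positive control inhibitor (100%).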

[2] = test system: NCI-1H226; experiment: Mesothelioma cell line proliferation assay, H226 (ATPlite); details: Homo sapiens, NCI-H226, 144 h, 6 days with compound
Experimental: (§1) Mesothelioma cell lines, NCI-1H226 and NCI-1H2052 (all sourced from the ATCC cell culture collection) are plated in 96-well plates (Corning® 96 Well White Polystyrene Microplate clear flat bottom, white polystyrene (TC-Treated)), at 1500 cells/well in full medium (RPMI 1640 ATCC modification with L-glutamine, HEPES, Phenol Red, Sodium Pyruvate, High glucose, Low sodium bicarbonate and 10% fetal bovine serum). Cells are incubated overnight at 37° C. in an incubator with 5% C02. Then compounds, dissolved in DMSO, are added in dose-response. Cells are incubated with compound dilutions for another 6 days at 37° C. in an incubator with 5% C02. Cell viability is quantitated using the ATPlite kit (Perkin-Elmer) and the luminescence is read-out using an Envision instrument (Perkin-Elmer). The amount of relative light units produced using the ATPlite kit is used to calculated percent of inhibition.
(§2) The activities of some example compounds are depicted in the table below. The activity ranges A, B and C refer to EC50 values in the mesothelioma cell line proliferation assay as described as follows: “A”: EC50<1 μM; “B”: 1 μM s EC50≤10 μM and “C”: EC50≥10 μM; NT: not tested.

[3] = test system: NCI-1H2052; experiment: Mesothelioma cell line proliferation assay, H2052 (ATPlite); details: Homo sapiens, NCI-H2052, 144 h, 6 days with compound, read-out: H2025 (EC50)
Experimental: as §1, §2

Compound	IC50 [1]	EC50 [2]	EC50 [3]	IC50 ([1]; Homo sapiens, HEK-293T, 24 h)
FC(F)(F)c1ccc(N2CC(C3CC(Br)=NO3)Cc3ccccc32)cc1 (single isomer, unassigned) [Cpd. No. 194(Dia1)-En1, 3-bromo-5-(1-(4-(trifluoromethyl)phenyl)-1,2,3,4-tetrahydroquinolin-3-yl)-4,5-dihydroisoxazole]	< 1000 nM	< 1000 nM	< 1000 nM	
C=CC(=O)NC1Cc2nc(N)ccc2N(c2ccc(C(F)(F)F)cc2)C1 (stereo not drawn) [Cpd. No. 140, N-(6-amino-1-(4-(trifluoromethyl)phenyl)-1,2,3,4-tetrahydro-1,5-naphthyridin-3-yl)acrylamide]		< 1000 nM	< 1000 nM	< 1000 nM
C=CC(=O)NCC1Cc2c(N)cccc2N(c2ccc(C(F)(F)F)cc2)C1 (stereo not drawn) [Cpd. No. 153, N-((5-amino-1-(4-(trifluoromethyl)phenyl)-1,2,3,4-tetrahydroquinolin-3-yl)methyl)acrylamide]		< 1000 nM	< 1000 nM	< 1000 nM
CC(=O)NCC1Cc2c(C#N)cccc2N(c2ccc(C(F)(F)F)cc2)C1 (stereo not drawn) [Cpd. No. 154, N-((5-cyano-1-(4-(trifluoromethyl)phenyl)-1,2,3,4-tetrahydroquinolin-3-yl)methyl)acetamide]		< 1000 nM	1000 to 10000 nM	< 1000 nM
C=CC(=O)NCC1Cc2c(CC#N)cccc2N(c2ccc(C(F)(F)F)cc2)C1 (stereo not drawn) [Cpd. No. 163, N-((5-(cyanomethyl)-1-(4-(trifluoromethyl)phenyl)-1,2,3,4-tetrahydroquinolin-3-yl)methyl)acrylamide]		< 1000 nM	< 1000 nM	< 1000 nM
C=CC(=O)NC(C)C1Cc2ccccc2N(c2ccc(C(F)(F)F)cc2)C1 (stereo not drawn) [Cpd. No. 192, N-(1-(1-(4-(trifluoromethyl)phenyl)-1,2,3,4-tetrahydroquinolin-3-yl)ethyl)acrylamide]		< 1000 nM	< 1000 nM	< 1000 nM
FC(F)(F)c1ccc(N2CC(C3CC(Br)=NO3)Cc3ccccc32)cc1 (stereo not drawn) [Cpd. No. 194, 3-bromo-5-(1-(4-(trifluoromethyl)phenyl)-1,2,3,4-tetrahydroquinolin-3-yl)-4,5-dihydroisoxazole]		< 1000 nM	≥ 10000 nM	< 1000 nM
C=CC(=O)NC1Cc2ccccc2N(c2ccc(OC(F)(F)F)cc2)C1 (stereo not drawn) [compound 021, N-(1-(4-(trifluoromethoxy)phenyl)-1,2,3,4-tetrahydroquinolin-3-yl)acrylamide]		< 1000 nM		< 1000 nM
C=CC(=O)NC1Cc2ccccc2N(c2ccc(S(F)(F)(F)(F)F)cc2)C1 (stereo not drawn) [compound 023, N-(1-(4-(pentafluoro-λ^6-sulfaneyl)phenyl)-1,2,3,4-tetrahydroquinolin-3-yl)acrylamide]		< 1000 nM		< 1000 nM
C=CC(=O)NC1Cc2ccccc2N(c2ccc(C(F)(F)F)c(F)c2)C1 (stereo not drawn) [compound 028, N-(1-(3-fluoro-4-(trifluoromethyl)phenyl)-1,2,3,4-tetrahydroquinolin-3-yl)acrylamide]		< 1000 nM	< 1000 nM	< 1000 nM
C=CC(=O)NC1Cc2ccccc2N(c2ccc(C(F)(F)F)cc2F)C1 (stereo not drawn) [compound 029, N-(1-(2-fluoro-4-(trifluoromethyl)phenyl)-1,2,3,4-tetrahydroquinolin-3-yl)acrylamide]		< 1000 nM	< 1000 nM	< 1000 nM
C=CC(=O)NC1Cc2ccccc2N(c2ccc(SC(F)(F)F)cc2)C1 (stereo not drawn) [compound 030, N-(1-(4-((trifluoromethyl)thio)phenyl)-1,2,3,4-tetrahydroquinolin-3-yl)acrylamide]		< 1000 nM		< 1000 nM
C=C(F)C(=O)NC1Cc2ccccc2N(c2ccc(C(F)(F)F)cc2)C1 (stereo not drawn) [compound 039, 2-fluoro-N-(1-(4-(trifluoromethyl)phenyl)-1,2,3,4-tetrahydroquinolin-3-yl)acrylamide]		< 1000 nM	< 1000 nM	< 1000 nM
C=CC(=O)NC1Cc2c(Cc3cccnc3)cccc2N(c2ccc(C(F)(F)F)cc2)C1 (stereo not drawn) [compound 059, N-(5-(pyridin-3-yl-methyl)-1-(4-(trifluoromethyl)phenyl)-1,2,3,4-tetrahydroquinolin-3-yl)acrylamide]		< 1000 nM		< 1000 nM
C=CC(=O)NC1Cc2c(F)cccc2N(c2ccc(C(F)(F)F)cc2)C1 (stereo not drawn) [compound 060, N-(5-fluoro-1-(4-(trifluoromethyl)phenyl)-1,2,3,4-tetrahydroquinolin-3-yl)acrylamide]		< 1000 nM	< 1000 nM	< 1000 nM
C=CC(=O)NC1Cc2c(C)cccc2N(c2ccc(C(F)(F)F)cc2)C1 (stereo not drawn) [compound 064, N-(5-methyl-1-(4-(trifluoromethyl)phenyl)-1,2,3,4-tetrahydroquinolin-3-yl)acrylamide]		< 1000 nM		< 1000 nM

Compound	IC50 [1]	EC50 [2]	EC50 [3]	IC50 ([1]; Homo sapiens, HEK-293T, 24 h)
C=CC(=O)NC1Cc2c(OC)cccc2N(c2ccc(C(F)(F)F)cc2)C1 (stereo not drawn) [compound 073, N-(5-methoxy-1-(4-(trifluoromethyl)phenyl)-1,2,3,4-tetrahydroquinolin-3-yl)acrylamide]		< 1000 nM		< 1000 nM
C=CC(=O)NC1Cc2c(N)cccc2N(c2ccc(C(F)(F)F)cc2)C1 (stereo not drawn) [compound 075, N-(5-amino-1-(4-(trifluoromethyl)phenyl)-1,2,3,4-tetrahydroquinolin-3-yl)acrylamide]		< 1000 nM	< 1000 nM	< 1000 nM
C=CC(=O)NC1Cc2c(NCCOC)cccc2N(c2ccc(C(F)(F)F)cc2)C1 (stereo not drawn) [compound 077, N-(5-((2-methoxyethyl)amino)-1-(4-(trifluoromethyl)phenyl)-1,2,3,4-tetrahydroquinolin-3-yl)acrylamide]		< 1000 nM	< 1000 nM	< 1000 nM
C=CC(=O)NC1Cc2c(C#N)cccc2N(c2ccc(C(F)(F)F)cc2)C1 (stereo not drawn) [compound 078, N-(5-cyano-1-(4-(trifluoromethyl)phenyl)-1,2,3,4-tetrahydroquinolin-3-yl)acrylamide]		< 1000 nM	< 1000 nM	< 1000 nM
C=CC(=O)NC1Cc2ncccc2N(c2ccc(C(F)(F)F)cc2)C1 (stereo not drawn) [compound 080, N-(1-(4-(trifluoromethyl)phenyl)-1,2,3,4-tetrahydro-1,5-naphthyridin-3-yl)acrylamide]		< 1000 nM	< 1000 nM	< 1000 nM
C=CC(=O)NCC1Cc2ccccc2N(c2ccc(C(F)(F)F)cc2F)C1 (stereo not drawn) [compound 113, N-((1-(2-fluoro-4-(trifluoromethyl)phenyl)-1,2,3,4-tetrahydroquinolin-3-yl)methyl)acrylamide]		< 1000 nM		< 1000 nM
C=CC(=O)NCC1Cc2c(C)cccc2N(c2ccc(C(F)(F)F)cc2)C1 (stereo not drawn) [compound 128, N-((5-methyl-1-(4-(trifluoromethyl)phenyl)-1,2,3,4-tetrahydroquinolin-3-yl)methyl)acrylamide]		< 1000 nM		< 1000 nM
C=CC(=O)N(C)CC1Cc2ccccc2N(c2ccc(C(F)(F)F)cc2)C1 (stereo not drawn) [compound 134, N-methyl-N-((1-(4-(trifluoromethyl)phenyl)-1,2,3,4-tetrahydroquinolin-3-yl)methyl)acrylamide]		< 1000 nM		< 1000 nM
C=CC(=O)NC1Cc2ccccc2N(Cc2ccc(C(F)(F)F)cc2)C1 (stereo not drawn) [compound 181, N-(1-(4-(trifluoromethyl)benzyl)-1,2,3,4-tetrahydroquinolin-3-yl)acrylamide]		< 1000 nM		< 1000 nM
C=CC(=O)NCC1Cc2ccccc2N(Cc2ccc(C(F)(F)F)cc2)C1 (stereo not drawn) [compound 184, N-((1-(4-(trifluoromethyl)benzyl)-1,2,3,4-tetrahydroquinolin-3-yl)methyl)acrylamide]		< 1000 nM		< 1000 nM
C=CC(=O)NC1Cc2ccccc2N(S(=O)(=O)c2ccc(C(F)(F)F)cc2)C1 (stereo not drawn) [compound 187, N-(1-((4-(trifluoromethyl)phenyl)sulfonyl)-1,2,3,4-tetrahydroquinolin-3-yl)acrylamide]				< 1000 nM
CCC(=O)NCC1CCc2ccccc2N1c1ccc(C(F)(F)F)cc1 (stereo not drawn) [compound 188, N-((1-(4-(trifluoromethyl)phenyl)-1,2,3,4-tetrahydroquinolin-2-yl)methyl)propionamide]				> 20000 nM
C=CC(=O)NCC1CCc2ccccc2N1Cc1ccc(C(F)(F)F)cc1 (stereo not drawn) [compound 189, N-((1-(4-(trifluoromethyl)benzyl)-1,2,3,4-tetrahydroquinolin-2-yl)methyl)acrylamide]				< 1000 nM
C=CC(=O)NCC1CCc2ccccc2N1Cc1cccc(C(F)(F)F)c1 (stereo not drawn) [compound 190, N-((1-(3-(trifluoromethyl)benzyl)-1,2,3,4-tetrahydroquinolin-2-yl)methyl)acrylamide]				< 1000 nM
C=CC(=O)NC1Cc2ccccc2N(Cc2ccc(Br)cc2)C1 (stereo not drawn) [compound 191, N-(1-(4-bromobenzyl)-1,2,3,4-tetrahydroquinolin-3-yl)acrylamide]				< 1000 nM
